Assay results as given in patent US10870625B2, “Zwitterionic propargyl-linked antifolates useful for treating bacterial infections” (THE UNIVERSITY OF CONNECTICUT, priority 2016, dated 2020).
In brackets after ≈: the same amount, converted by molar mass. Like-named read-outs stand apart in the source and are kept apart here.

Key:
[1] = tested on: Sa43300; format: cell-based, Staphylococcus aureus; settings: progenitor Sa43300, 6× MIC
[2] = tested on: S. aureus ATCC strain 43300; assay: microbe, parasite or virus in culture; format: cell-based, Staphylococcus aureus; settings: for MIC Sa43300: Table 12, wild-type strain
[3] = tested on: Sa43300; settings: previously reported studies, S. aureus 43300; cited from earlier work
[4] = tested on: Sa(H30N) strain; assay: microbe, parasite or virus in culture; settings: Staphylococcus aureus, read-out: MIC Sa(H30N)
[5] = molecular target: T1, MtbDHFR (Mycobacterium tuberculosis (strain ATCC 25618 / H37Rv), UniProt P9WNX1); settings: data from Nixon et al., Chem. Biol. (2014); cited from earlier work
[6] = tested on: Mtb; assay: M. tuberculosis MIC, microtiter broth dilution (Table 6); format: cell-based, Mycobacterium tuberculosis
Method: (§1) (provided by Leonid Heifets).
(§2) Each isolate was tested in duplicate.

[7] = tested on: E. coli (ATCC 25922); assay: E. coli MIC, microdilution broth assay; format: cell-based, Escherichia coli; settings: Table 2; wild-type E. coli
Method: Minimum inhibitory concentrations were determined using E. coli (ATCC 25922) and the microdilution broth assay with an inoculum of […] CFU/mL in Isosensitest Broth (Oxoid).

[8] = tested on: Mtb 352; format: cell-based, Mycobacterium tuberculosis; settings: MDR strain
[9] = molecular target: T1, MtbDHFR; assay: M. tuberculosis DHFR enzyme inhibition; format: biochemical
[10] = tested on: E. coli NR698; format: cell-based, Escherichia coli; settings: Table 2
[11] = tested on: Mtb 276; format: cell-based, Mycobacterium tuberculosis; settings: MDR strain
[12] = molecular target: S. aureus (Sa) DHFR (Staphylococcus aureus, UniProt P0A017); format: biochemical; settings: Table 2
[13] = tested on: Mtb 56; format: cell-based, Mycobacterium tuberculosis; settings: MDR strain
[14] = tested on: Mtb 5; format: cell-based, Mycobacterium tuberculosis; settings: XDR strain
[15] = tested on: Mtb Erdman; assay: Mtb Erdman MIC, microtiter broth dilution; format: cell-based, Mycobacterium tuberculosis
Method: as §1, §2

[16] = tested on: Sa(H30N) strain
[17] = tested on: Mtb C-31; format: cell-based, Mycobacterium tuberculosis; settings: MDR strain
[18] = molecular target: CYP3A4 (Homo sapiens (Human), UniProt P08684); assay: Cytochrome P450 inhibition, CYP3A4
[19] = tested on: Mtb 365; format: cell-based, Mycobacterium tuberculosis; settings: MDR strain
[20] = Microsomal stability assay (UPLC of parent compound)
[21] = molecular target: E. coli (Ec) DHFR (Escherichia coli (strain K12), UniProt P0ABQ4); assay: E. coli DHFR enzyme inhibition (NADPH oxidation, 340 nm); format: biochemical; settings: Table 2
[22] = molecular target: CYP2D6 (Homo sapiens (Human), UniProt P10635); assay: Cytochrome P450 inhibition, CYP2D6
[23] = molecular target: human (Hu) DHFR (Homo sapiens (Human), UniProt P00374); assay: Human DHFR enzyme inhibition (Example 5); format: biochemical; settings: Table 2
[24] = tested on: E. coli, efflux pumps genetically deleted; settings: background; cited from earlier work
[25] = tested on: wild-type Gram-negative E. coli; settings: background; cited from earlier work
[26] = tested on: methicillin-resistant S. aureus (MRSA); settings: background; cited from earlier work

CCc1nc(N)nc(N)c1C#CC(C)c1cc(OC)cc(-c2ccncc2)c1 (centres unmarked) [Compound A]
Mutational Frequency of DHFR mutation F98Y [1]: 3.11 × 10^−11 | Mutational Frequency of DHFR mutation H30N [1]: 4.67 × 10^−11 | Mutational Frequency of DHFR mutation H149R [1]: 1.65 × 10^−10 | MIC ([2]; Staphylococcus aureus, ATCC43300, read-out: MIC Sa43300): 0.0781 µg/mL (≈ 0.209 µM) | mutation frequencies of mutants F98Y and F98I [3]: 10^−10 | MIC [4]: 2.5 µg/mL (≈ 6.69 µM)

COc1cc(NCc2ccc3nc(N)nc(N)c3c2C)cc(OC)c1OC [Trimetrexate, trimetrexate, reference compound]
IC50 [5]: 17 nM | MIC ([6]; Mycobacterium tuberculosis): 4 µg/mL (≈ 10.8 µM)

CCc1nc(N)nc(N)c1C#CCc1cc(-c2ccc(C(=O)O)cc2)ccc1OC [Compound 15]
MIC E. coli 25922 [7]: >20 µg/mL | MIC Mtb 352 [8]: 16 µg/mL (≈ 39.8 µM) | IC50 [9]: 173 nM | MIC E. coli NR698 [10]: 0.0098 µg/mL (≈ 0.0244 µM) | MIC Mtb 276 [11]: 16 µg/mL (≈ 39.8 µM) | IC50 [12]: 32 nM | MIC Mtb56 [13]: 16 µg/mL (≈ 39.8 µM) | MIC Mtb 5 [14]: 8 µg/mL (≈ 19.9 µM) | MIC Mtb Erdman [15]: 16 µg/mL (≈ 39.8 µM) | MIC Sa(H30N) [16]: 0.1563 µg/mL (≈ 0.388 µM) | MIC Mtb [6]: 4 µg/mL (≈ 9.94 µM) | MIC Mtb C-31 [17]: >32 µg/mL | concentration required for inhibition of CYP3A4 [18]: greater than 50 μM | MIC Mtb 365 [19]: 4 µg/mL (≈ 9.94 µM) | MIC S. aureus 43300 [2]: 0.0195 µg/mL (≈ 0.0485 µM) | MIC Sa43300 [2]: 0.0195 µg/mL (≈ 0.0485 µM) | phase I half-life ([20]; phase I): 99 min | phase II half-life ([20]; phase II): approximately 87 min | IC50 [21]: 90 nM | concentration required for inhibition of CYP2D6 [22]: greater than 50 μM

CCc1nc(N)nc(N)c1C#CC(SC)c1cc(-c2ccc(C(=O)O)cc2)ccc1OC (centres unmarked) [Compound 29]
IC50 [23]: 266 nM | MIC E. coli 25922 [7]: >20 µg/mL | MIC E. coli NR698 [10]: 0.0391 µg/mL (≈ 0.0872 µM) | IC50 [12]: 37 nM | MIC Sa(H30N) [16]: 0.1563 µg/mL (≈ 0.348 µM) | MIC Mtb [6]: 0.5 µg/mL (≈ 1.11 µM) | MIC S. aureus 43300 [2]: 0.625 µg/mL (≈ 1.39 µM) | MIC Sa43300 [2]: 0.0391 µg/mL (≈ 0.0872 µM) | IC50 [21]: 177 nM

CN(Cc1cnc2nc(N)nc(N)c2n1)c1ccc(C(=O)N[C@@H](CCC(=O)O)C(=O)O)cc1 [methotrexate]
MIC E. coli, efflux pumps genetically deleted [24]: 64 to 256 µM | MIC wild-type E. coli [25]: over 1 mM | MIC50 MRSA [26]: 20 µg/mL (≈ 44 µM) | MIC90 MRSA [26]: 100 µg/mL (≈ 220 µM)
